Like-named read-outs stand apart in the source and are kept apart here.
Experiments:
[1] = system: C6 cells; assay: PDGF-stimulated DNA synthesis, C6 cells (3H-thymidine); format: cell-based, rat; settings: 50 ng/ml PDGF-BB
[2] = Effects of A10 on mortality (mice implanted with C6 cells); format: in vivo, mouse; settings: mouse, in vivo, ip
Procedure: (§1) Cell lines were grown in appropriate medium (see Appendix 1). Cells were harvested at or near confluency with 0.05% Trypsin-EDTA and pelleted at 450×g for 10 min. Pellets were resuspended in sterile PBS or media (without FBS) to a particular concentration and the cells were implanted into the hindflank of mice. Tumor growth was measured over 3 to 6 weeks using venier calipers. Tumor volumes were calculated as a product of length×width×height unless otherwise indicated. P values were calculated using the Students' t-test.

[3] = system: mice implanted with C6 cells; assay: as above; format: in vivo, mouse
Procedure: as §1

[4] = system: spleen cells; assay: Normal immune function in naive mice; format: in vivo, mouse
Description: At the indicated times, animals were sacrificed, and the spleens were aseptically removed and placed into sterile medium. Spleens were processed into single cell suspensions by grinding between sterile frosted glass microscope slides. After a single wash to remove tissue debris, the spleen cells were resuspended in a hypotonic ammonium chloride buffer to lyse erythrocytes. Lymphocytes were washed and resuspended to the appropriate concentrations in complete medium, consisting of RPMI plus 10% heat-inactivated FBS, 2 mM glutamine, 50 μM β-mercaptoethanol, and penicillin-streptomycin. The responses of the lymphocytes were examined in the following assays according to accepted procedures (Current Protocols in Immunology. Coligan, J. E., Kruisbeek, A. M., Margulies, D. H., Shevach, E. M., Strober, W. (eds.) John Wiley and Sons, Inc., 1992).
The T-cell mitogen, ConA, and the T-cell independent B-cell mitogen, LPS, were added to 96-well round-bottom wells at the indicated concentrations. Lymphocytes from normal, vehicle-dosed, and drug-dosed animals were added at a final concentration of 2.5×10^5 /well. Cultures were usually set up in triplicate or quadruplicate. The plates were incubated at 37° C. in a humidified atmosphere containing 5% CO2 for the indicated times. Supernatants (approximately 100 μL) were carefully removed from the wells and stored at -80° C. for lymphokine and immunoglobulin analyses. To measure proliferation of the lymphocytes, 1 μCi of ^3 H-thymidine was added to each well, and the plates were incubated for 6 hr. The cultures were harvested onto glass fiber filters, and the incorporated radioactivity was quantitated by liquid scintillation counting (Betaplate, Wallac).
Lymphocytes from normal, vehicle-dosed, and drug-dosed animals were plated at 2.5×10^5 /well in round-bottom 96-well plates. Stimulator cells were then added at the same cell concentration. The stimulator cells consisted of syngeneic or allogeneic lymphocytes which had been treated with 50 μg/mL of mitomycin C for 30 min prior to the assay. The plates were incubated for 3 to 4 days, at which time supernatants were harvested and the cultures were pulsed as described for the mitogen assays.
Supernatants from mitogen and MLR cultures were assayed for IL-2 and IL-6 content by the ability to support the growth of factor-dependent cell lines. HT-2 cells (10^4 /well, IL-2-dependent) and 7TD1 cells (2×10^3 /well, IL-6-dependent) were plated in 96-well flat-bottom plates, in 50 μL/well. Supernatants were added in 50 μL/well, and the plates were incubated overnight (HT-2) or four days (7TD1). Cellular proliferation was determined in the MTT colorimetric assay (Appendix 3.1).
Flat bottom 96-well EIA plates were coated with goat anti-mouse Ig antibodies (Southern Biotechnology) overnight at 4° C. The plates were blocked by the addition of PBS+1% BSA. After washing with PBS, supernatants from murine mitogen and MLR cultures were added and incubated at room temperature for 1 hr. The plates were washed with PBS, then HRP-labeled goat anti-mouse Ig antibodies were added and incubated at room temperature for 1 hr. The plates were washed and developed by the addition of substrate (ABTS).
The animals were sacrificed and their spleen cells were assayed in vitro for responses to ConA (a T-cell mitogen), LPS (a T-cell independent B-cell mitogen), and alloantigens (C3H/HeJ spleen cells) as described in Appendix 5. The IL-2, IL-6, Ig content and cellular proliferation were measured after 48 hr (mitogens) or 72 hr (alloantigens).

[5] = mouse, in vivo
Procedure: Plasma was prepared and frozen in liquid nitrogen. Tissues and organs were resected and immediately frozen in liquid nitrogen. After the addition of an internal standard, plasma samples were acidified with HCl and extracted with acetonitrile. The acetonitrile fraction was evaporated to dryness in a vacuum centrifuge with heating and redissolved in methanol. Tissue and organ samples were homogenized according to the weight ratio of 1:5 (w:v) in 50 mM Tris-HCl, pH 7.4, at 20,000 rev/min, using a tissue homogenizer (Brinkmann Polytron Model PT3000). After the addition of an internal standard, the homogenate was acidified with HCl and then extracted with acetonitrile. The acetonitrile fraction was then extracted with an equal volume of diethyl ether. The ether fraction was evaporated to dryness in a vacuum centrifuge with heating and redissolved in methanol.
Samples for HPLC analysis were injected onto a Hewlett Packard Hypersil 5-μm C18 cartridge column (100×4.6 mm). The mobile phase was methanol:35 mM KH2 PO4 (pH 4.5) 55:45 containing 4 mM triethylamine. The flow rate was 1.2 mL/min. The compounds were monitored by UV absorption at 254 nm using a Hewlett-Packard diode-array detector (HP Model 1090). Plasma and tissue concentrations were determined from standard curves using peak area for quantitation. […] The internal standard used was 5-methyl-pyrazole-4-carboxylic acid-(4-trifluoromethyl)-anilide.
Table XXII. […] Plasma and brain samples were prepared and analyzed by HPLC as described in Appendix 6. All results were calculated by the method of internal standardization. NT= not tested, ND= not detected.

Cc1oncc1C(=O)Nc1ccc(C(F)(F)F)cc1 [Compound A10, 5-methylisoxazole-4 carboxylic acid-(4-trifluromethyl)-anilide]
PDGF-stimulated DNA synthesis [1]: decreased PDGF-stimulated DNA synthesis in both types of cells | mortality ([2]; 25 mg/kg/day (PBTE:D5W), 67 treatments, n 8): 0% | mortality ([2]; 30 mg/kg/day (PBTE), 48 treatments, n 4): 50% | mortality ([2]; 40 mg/kg/day (PBTE), 48 treatments, n 4): 75% | mortality ([3]; 20 mg/kg/day (DMSO), 21 treatments, n 26): 54% | mortality ([3]; 20 mg/kg/day (PBTE), 20-48 treatments, n 12): 8% | mortality rate by formulation ([3]; PBTE:D5W compared to DMSO and PBTE): significantly reduced the mortality rate compared to DMSO formulations, and PBTE formulations | 3H-thymidine uptake ([4]; Allo, d7, vs vehicle): 0 | IL-2 production ([4]; Allo, d7, vs vehicle): 0 | IL-6 production ([4]; Allo, d7, vs vehicle): 0 | Ig production ([4]; Allo, d7, vs vehicle): 0 | 3H-thymidine uptake ([4]; Allo, d21, vs vehicle): 0 | IL-2 production ([4]; Allo, d21, vs vehicle): 0 | IL-6 production ([4]; Allo, d21, vs vehicle): 0 | Ig production ([4]; Allo, d21, vs vehicle): 0 | 3H-thymidine uptake ([4]; ConA, d7, vs vehicle): 0 | IL-2 production ([4]; ConA, d7, vs vehicle): 0 | IL-6 production ([4]; ConA, d7, vs vehicle): ++ | Ig production ([4]; ConA, d7, vs vehicle): 0 | 3H-thymidine uptake ([4]; ConA, d21, vs vehicle): 0 | IL-2 production ([4]; ConA, d21, vs vehicle): 0 | IL-6 production ([4]; ConA, d21, vs vehicle): 0 | Ig production ([4]; ConA, d21, vs vehicle): 0 | 3H-thymidine uptake ([4]; LPS, d7, vs vehicle): 0 | IL-2 production ([4]; LPS, d7, vs vehicle): 0 | IL-6 production ([4]; LPS, d7, vs vehicle): 0 | Ig production ([4]; LPS, d7, vs vehicle): + | 3H-thymidine uptake ([4]; LPS, d21, vs vehicle): 0 | IL-2 production ([4]; LPS, d21, vs vehicle): 0 | IL-6 production ([4]; LPS, d21, vs vehicle): 0 | Ig production ([4]; LPS, d21, vs vehicle): +/- | plasma concentration, single dose ([5]; 20 mg/kg): not detected | plasma concentration, single dose ([5]; 40 mg/kg): not detected

Source: US6331555A, “Treatment of platelet derived growth factor related disorders such as cancers” (priority 1999, dated 2001)
